Common to all, as to assay type: cell-based
One experiment relates to Staph. aureus C-5113. Put plainly: MIC by agar dilution, Staph. aureus C-5113. As to conditions: Staphylococcus aureus, C5113, 17 h, Mueller-Hinton agar, read-out: Minimal Inhibitory Concentration (MIC). The method in brief: (§1)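 Each compound was serially halved and mixed into Mueller-Hinton agar medium. Bacteria (10^6 CFU per ml) were then inoculated by replicator, and growth was assessed after incubation for 17±1 hours at 35°-37° C.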
Background: In agar dilution the substance is mixed into plates at graded concentrations.

The next experiment deals with Prov. stuartii IFO 12930. Put plainly: MIC by agar dilution, Prov. stuartii IFO 12930. The conditions noted are these: Providencia stuartii, IFO12930, 17 h, Mueller-Hinton agar, read-out: Minimal Inhibitory Concentration (MIC). The method in brief:
as §1

The test system of experiment [1] is S. epidermidis ATCC 12228. Put plainly: MIC by agar dilution, S. epidermidis ATCC 12228. As to conditions: Staphylococcus epidermidis, ATCC12228, 17 h; S. epidermidis ATCC 12228; agar dilution, Mueller-Hinton agar; read-out: Minimal Inhibitory Concentration (MIC). The method in brief:
as §1

A further experiment has as its system K. pneumoniae NCTC 9632. Put plainly: MIC by agar dilution, K. pneumoniae NCTC 9632. The conditions noted are these: Klebsiella pneumoniae, NCTC9632, 17 h; K. pneumoniae NCTC 9632; agar dilution, Mueller-Hinton agar; read-out: Minimal Inhibitory Concentration (MIC). The method in brief:
as §1

For experiment [2], the system named is Ps. aeruginosa ATCC 10145. Put plainly: MIC by agar dilution, Ps. aeruginosa ATCC 10145. As to conditions: Pseudomonas aeruginosa, ATCC10145, 17 h, Mueller-Hinton agar, read-out: Minimal Inhibitory Concentration (MIC). The method in brief: as §1
The next experiment relates to Ent. aerogenes IFO 12979. Put plainly: MIC by agar dilution, Ent. aerogenes IFO 12979. The conditions noted are these: Klebsiella aerogenes, IFO12979, 17 h, Mueller-Hinton agar, read-out: Minimal Inhibitory Concentration (MIC). The method in brief:
as §1

Experiment [3] relates to Ps. aeruginosa NCTC 10490. Put plainly: MIC by agar dilution, Ps. aeruginosa NCTC 10490. The conditions noted are these: Pseudomonas aeruginosa, NCTC10490, 17 h, Mueller-Hinton agar, read-out: Minimal Inhibitory Concentration (MIC). The method in brief:
as §1

The subject of another experiment is B. subtilis ATCC 6633. Put plainly: MIC by agar dilution, B. subtilis ATCC 6633. As to conditions: Bacillus subtilis, ATCC6633, 17 h; B. subtilis ATCC 6633; agar dilution, Mueller-Hinton agar; read-out: Minimal Inhibitory Concentration (MIC). The method in brief: as §1
Another experiment has as its system P. vulgaris NCTC 8313. Put plainly: MIC by agar dilution, P. vulgaris NCTC 8313. As to conditions: Proteus vulgaris, NCTC8313, 17 h; P. vulgaris NCTC 8313; agar dilution, Mueller-Hinton agar; read-out: Minimal Inhibitory Concentration (MIC). The method in brief:
as §1

For another experiment, the system named is Ent. cloacae IFO 13535. Put plainly: MIC by agar dilution, Ent. cloacae IFO 13535. The conditions noted are these: Enterobacter cloacae, IFO13535, 17 h; Ent. cloacae IFO 13535; agar dilution, Mueller-Hinton agar; read-out: Minimal Inhibitory Concentration (MIC). The method in brief: as §1
For a further experiment, the system named is Staph. aureus C-5216. Put plainly: MIC by agar dilution, Staph. aureus C-5216. As to conditions: Staphylococcus aureus, C5216, 17 h, Mueller-Hinton agar, read-out: Minimal Inhibitory Concentration (MIC). The method in brief:
as §1

For another experiment, the system named is E. coli NIHJ JC-2. Put plainly: MIC by agar dilution, E. coli NIHJ JC-2. As to conditions: Escherichia coli, NIHJJC2, 17 h; E. coli NIHJ JC-2; agar dilution, Mueller-Hinton agar; read-out: Minimal Inhibitory Concentration (MIC). The method in brief: as §1
Another experiment relates to E. coli No. 29. Put plainly: MIC by agar dilution, E. coli No. 29. As to conditions: Escherichia coli, 17 h; E. coli No. 29; agar dilution, Mueller-Hinton agar; read-out: Minimal Inhibitory Concentration (MIC). The method in brief:
as §1

In the next experiment the test system is Staph. aureus ATCC 6538P. Put plainly: MIC by agar dilution, Staph. aureus ATCC 6538P. As to conditions: Staphylococcus aureus, ATCC6538P, 17 h; Staph. aureus ATCC 6538P; agar dilution, Mueller-Hinton agar; read-out: Minimal Inhibitory Concentration (MIC). The method in brief:
as §1

Experiment [4] concerns Ser. marcescens IFO 12648. Put plainly: MIC by agar dilution, Ser. marcescens IFO 12648. As to conditions: Serratia marcescens, IFO12648, 17 h; Ser. marcescens IFO 12648; agar dilution, Mueller-Hinton agar; read-out: Minimal Inhibitory Concentration (MIC). The method in brief:
as §1

For the next experiment, the system named is M. morganii DY-1. Put plainly: MIC by agar dilution, M. morganii DY-1. The conditions noted are these: Morganella morganii, DY1, 17 h; M. morganii DY-1; agar dilution, Mueller-Hinton agar; read-out: Minimal Inhibitory Concentration (MIC). The method in brief: as §1
For another experiment, the system named is Ps. aeruginosa DY-2. Put plainly: MIC by agar dilution, Ps. aeruginosa DY-2. As to conditions: Pseudomonas aeruginosa, DY2, 17 h; Ps. aeruginosa DY-2; agar dilution, Mueller-Hinton agar; read-out: Minimal Inhibitory Concentration (MIC). The method in brief: as §1
The next experiment concerns E. coli DY-1. Put plainly: MIC by agar dilution, E. coli DY-1. As to conditions: Escherichia coli, DY1, 17 h; E. coli DY-1; agar dilution, Mueller-Hinton agar; read-out: Minimal Inhibitory Concentration (MIC). The method in brief:
as §1

Another experiment has as its system Staph. aureus C-57. Put plainly: MIC by agar dilution, Staph. aureus C-57. As to conditions: Staphylococcus aureus, C57, 17 h, Mueller-Hinton agar, read-out: Minimal Inhibitory Concentration (MIC). The method in brief: as §1
A further experiment deals with Staph. aureus Smith. Put plainly: MIC by agar dilution, Staph. aureus Smith. The conditions noted are these: Staphylococcus aureus, 17 h, Mueller-Hinton agar, read-out: Minimal Inhibitory Concentration (MIC). The method in brief:
as §1

Data on three molecules can be found in patent US5593984A, “Cephalosporin derivatives” (Yuhan Corporation, priority 1992, dated 1997).

Each structure is given as a SMILES string. Converted amounts (≈) assume the structure as drawn.

Regarding `CCON=C(C(=O)NC1C(=O)N2C(C(=O)[O-])=C(C[n+]3ccn4c(C(C)=O)ccc4c3)CSC12)c1csc(N)n1` (stereo not drawn) [Ex. 19, 7-β-[(Z)-2-(2-aminothiazol-4-yl)-2-ethoxyiminoacetamido]-3-(6-acetylpyrrolo[1,2-a]pyrazinium-2-yl)methyl-3-cephem-4-carboxylate], the MIC stood at 1.56 µg/mL (≈ 2.74 µM) with Staph. aureus C-5113; 0.05 µg/mL (≈ 0.0878 µM) in the experiment on Prov. stuartii IFO 12930; 0.05 µg/mL (≈ 0.0878 µM) in experiment [1]; 0.05 µg/mL (≈ 0.0878 µM) in the experiment with K. pneumoniae NCTC 9632; 3.13 µg/mL (≈ 5.49 µM) in [2]; 0.012 µg/mL (≈ 0.0211 µM) in the experiment with Ent. aerogenes IFO 12979. For the same molecule, the MIC in experiment [3] was 0.1 µg/mL (≈ 0.176 µM); in the experiment with B. subtilis ATCC 6633 it was 0.1 µg/mL (≈ 0.176 µM); in the experiment with P. vulgaris NCTC 8313 it was at most 0.006 µg/mL; with Ent. cloacae IFO 13535, 0.2 µg/mL (≈ 0.351 µM); in the experiment on Staph. aureus C-5216, 1.56 µg/mL (≈ 2.74 µM); with E. coli NIHJ JC-2, 0.05 µg/mL (≈ 0.0878 µM). The MIC with E. coli No. 29 stood at 0.05 µg/mL (≈ 0.0878 µM); in the experiment on Staph. aureus ATCC 6538P it was 0.2 µg/mL (≈ 0.351 µM); in experiment [4], 0.1 µg/mL (≈ 0.176 µM); with M. morganii DY-1, 0.025 µg/mL (≈ 0.0439 µM); in the experiment with Ps. aeruginosa DY-2, 6.25 µg/mL (≈ 11 µM); with E. coli DY-1, 0.025 µg/mL (≈ 0.0439 µM). In addition, the values for the MIC in the experiment with Staph. aureus C-57 and in the experiment on Staph. aureus Smith were 50 µg/mL (≈ 87.8 µM) and 0.78 µg/mL (≈ 1.37 µM), respectively.
With `CON=C(C(=O)NC1C(=O)N2C(C(=O)[O-])=C(C[n+]3ccn4c(C(C)O)ccc4c3)CSC12)c1csc(N)n1` (stereo not drawn) [Ex. 20, 7-β-[(Z)-2-(2-aminothiazol-4-yl)-2-methoxyiminoacetamido]-3-[6-(1-hydroxyethyl)pyrrolo[1,2-a]pyrazinium-2-yl]methyl-3-cephem-4-carboxylate], the MIC was 1.56 µg/mL (≈ 2.8 µM) in the experiment on Staph. aureus C-5113; at most 0.006 µg/mL in the experiment with Prov. stuartii IFO 12930; 0.2 µg/mL (≈ 0.359 µM) in experiment [1]; 0.012 µg/mL (≈ 0.0215 µM) in the experiment on K. pneumoniae NCTC 9632; 0.78 µg/mL (≈ 1.4 µM) in experiment [2]; at most 0.006 µg/mL in the experiment with Ent. aerogenes IFO 12979. Besides, the MIC in experiment [3] amounted to 0.2 µg/mL (≈ 0.359 µM); in the experiment on B. subtilis ATCC 6633, 0.1 µg/mL (≈ 0.179 µM); in the experiment on P. vulgaris NCTC 8313, 0.012 µg/mL (≈ 0.0215 µM); in the experiment with Ent. cloacae IFO 13535, 0.1 µg/mL (≈ 0.179 µM); with Staph. aureus C-5216, 1.56 µg/mL (≈ 2.8 µM); in the experiment with E. coli NIHJ JC-2 it was 0.025 µg/mL (≈ 0.0448 µM). Further, the MIC with E. coli No. 29 is at most 0.006 µg/mL; in the experiment on Staph. aureus ATCC 6538P, 0.2 µg/mL (≈ 0.359 µM); in [4], 0.025 µg/mL (≈ 0.0448 µM); in the experiment with M. morganii DY-1, 0.012 µg/mL (≈ 0.0215 µM); with Ps. aeruginosa DY-2 it was 3.13 µg/mL (≈ 5.61 µM); in the experiment with E. coli DY-1, at most 0.006 µg/mL. The MIC with Staph. aureus C-57 was 50 µg/mL (≈ 89.7 µM); in the experiment with Staph. aureus Smith, 0.78 µg/mL (≈ 1.4 µM).
As to `CON=C(C(=O)NC1C(=O)N2C(C(=O)[O-])=C(C[n+]3ccn4c(CO)ccc4c3)CSC12)c1csc(N)n1` (stereo not drawn) [Ex. 21, 7-β-[(Z)-2-(2-aminothiazol-4-yl)-2-methoxyiminoacetamido]-3-(6-hydroxymethylpyrrolo[1,2-a]pyrazinium-2-yl)methyl-3-cephem-4-carboxylate], the MIC with Staph. aureus C-5113 is 3.13 µg/mL (≈ 5.76 µM); in the experiment on Prov. stuartii IFO 12930, at most 0.006 µg/mL; in [1], 0.2 µg/mL (≈ 0.368 µM); in the experiment with K. pneumoniae NCTC 9632, 0.012 µg/mL (≈ 0.0221 µM); in experiment [2], 0.39 µg/mL (≈ 0.717 µM); in the experiment on Ent. aerogenes IFO 12979 it was at most 0.006 µg/mL. Besides, the MIC was 0.1 µg/mL (≈ 0.184 µM) in experiment [3]; 0.1 µg/mL (≈ 0.184 µM) in the experiment on B. subtilis ATCC 6633; at most 0.006 µg/mL with P. vulgaris NCTC 8313; 0.1 µg/mL (≈ 0.184 µM) with Ent. cloacae IFO 13535; 0.78 µg/mL (≈ 1.43 µM) in the experiment with Staph. aureus C-5216; 0.012 µg/mL (≈ 0.0221 µM) in the experiment on E. coli NIHJ JC-2. Also, the MIC was at most 0.006 µg/mL with E. coli No. 29; 0.2 µg/mL (≈ 0.368 µM) in the experiment on Staph. aureus ATCC 6538P; 0.012 µg/mL (≈ 0.0221 µM) in experiment [4]; 0.012 µg/mL (≈ 0.0221 µM) in the experiment with M. morganii DY-1; 6.25 µg/mL (≈ 11.5 µM) in the experiment on Ps. aeruginosa DY-2; at most 0.006 µg/mL in the experiment with E. coli DY-1. Besides, the MIC in the experiment on Staph. aureus C-57 worked out at 50 µg/mL (≈ 92 µM); with Staph. aureus Smith, 0.78 µg/mL (≈ 1.43 µM).
